Consider 19 compounds from US4874765A, “1,4-Disubstituted piperazines having dopaminergic activity” (Richter Gedeon Vegyeszeti Gyar, priority 1986, dated 1989).

One series relates to striatum dopamine level. Briefly: Protection against MPTP-induced striatal dopamine decrease in mice. It is filed as in vivo, male CFY mice. The following applies: for inhibition in vivo at 100 µmol/kg: Mus musculus, 0.1 mmole/kg, 1 hour before MPTP 70 mg/kg s.c., striatum DA 72-96 hours after MPTP. How it is done: The dopaminergic activity of the compounds of the invention was determined by in vitro and in vivo animals tests. On the examination of the in vivo activity, the protective capability of the compounds against the neurotoxic effect of 1-methyl-4-phenyl-1,2,3,6-tetrahydropyridine (MPTP) was also studied. […] Davis et al.: Psychiat.
(§1) For these investigations male CFY mice (LATI, Godollo, Hungary) weighing 20-25 g were used. The compounds to be tested were homogenized in 1% Tween 80 solution and administered to the animals in a dose of 0.1 mmole/kg (in the route given in the Table) 1 hour before administering MPTP. MPTP was freshly dissolved in physiological saline solution and subcutaneously given to the mice in a dose of 70 mg/kg. 72 to 96 hours after the administration of MPTP the animals were killed by decapitation, their brain was rapidly removed, cooled in an ice-cold physiological saline solution, the striatum was excised and refrigerated in dry ice.
The tissues (in a refrigerated condition) were weighed and homogenized in 1 ml of 0.4N perchloric acid solution containing 0.5% of Na2 S2 O5, 0.25 % of Na2 EDTA and 100 ng of M-methyldopamine (internal standard for the determination of catecholamines) in an Ultra-Turrax equipment. The homogenate was centrifuged at 4° C. at 20,000 g for 10 minutes, then 0.8 ml of the supernatent was taken out. After adding 20 mg of activated aluminum oxide, the pH value of the solution was adjusted to 8 by adding 0.5M Tris solution and the tubes were shaken for 20 minutes. The aluminium oxide was settled, the supernatent was removed by suction and washed 3 times with 5 ml of distilled water each. The catecholamines adsorbed on the aluminium oxide were eluted with 1 ml of 0.05N perchloric acid. From a part of the eluate, dopamine was determined by using high pressure liquid chromatography by means of electrochemical detection (Labor MIM Oe-320 pump, 4×150 mm Nucleosil 5 C-18 analytical column and 4×20 mm Nucleosil 5 C-18 supplementary column; electrochemical detector fitted with a glassy-carbon working electrode and an Ag/AgCl2 reference electrode; Eltron potentiostat, LKB 2110 2-channel recorder; with an oxidation potential of 600 mV and as mobile phase 0.1M NaH2 PO4, 1 mM Na2 EDTA, 1 mM octanesulfonic acid containing 8.5% of acetonitrile; flow rate 1 ml/minute).
The protection against the dopamine decrease induced by MPTP was calculated as follows: [formula]
(§2) As a referenced drug, trihexyphenidyl hydrochloride (α-cyclohexyl-α-phenyl-1-piperidinepropanol hydrochloride) was used in a dose of 10 mg/kg (<0.1 mmole/kg).

The test system of series [1] is dopaminergic system. The following applies: cited from earlier work.
The subject of series [2] is dopaminergic system. The following applies: cited from earlier work. The source holds these as a separate data set.
The conditions of series [3]: dose higher than 10 mg/kg; mice. As to the method:
as §1, §2

[4] abbreviates: ip, read-out: DA decrease induced by MPTP, % inhibition, i.p. route.
The mark [5] stands for this setting: po, read-out: DA decrease induced by MPTP, % inhibition, p.o. route.

Like-named read-outs stand apart in the source and are kept apart here.

In the case of `C=CCN1CCN(CCOC(c2ccc(F)cc2)c2ccc(F)cc2)CC1` [Compound 1, 1-[2[bis(4-fluorophenyl)methoxy]ethyl]-4-(2-propenyl)-piperazine], the values for the inhibition in vivo at 100 µmol/kg in the series on striatum dopamine level (setting [4]) and in the series on striatum dopamine level (setting [5]) were 98% and 100%, respectively.
Turning to `CCCN1CCN(CCOC(c2ccc(F)cc2)c2ccc(F)cc2)CC1` [Compound 2], the inhibition in vivo at 100 µmol/kg in the series with striatum dopamine level (setting [4]) turned out to be 100%.
Take `C=CCN1CCN(CCOC(c2ccccc2)c2ccc(F)cc2)CC1` (centres unmarked) [Compound 3, 1-[2-[(4-fluorophenyl)-phenylmethoxy]ethyl]-4-(2-propenyl)piperazine]: the inhibition in vivo at 100 µmol/kg in the series on striatum dopamine level (setting [5]) was 100%.
As for `C=CCN1CCN(CCOC(c2ccc(F)cc2)c2ccc(Cl)cc2)CC1` (centres unmarked) [Compound 4, 1-[2-[(4-chlorophenyl)-(4-fluorophenyl)methoxy]-ethyl]-4-(2-propenyl)piperazine], the inhibition in vivo at 100 µmol/kg with striatum dopamine level (setting [4]) is 100%.
Regarding `C=CCN1CCN(CCOC(c2ccc(F)cc2)c2ccc(Br)cc2)CC1` (centres unmarked) [Compound 5, 1-[2-[(4-bromophenyl)-(4-fluorophenyl)methoxy]-ethyl]-4-(2-propenyl)piperazine], in the series on striatum dopamine level (setting [4]), the inhibition in vivo at 100 µmol/kg is 100%.
Consider `C=CCN1CCN(CCOC(c2ccc(Cl)cc2)c2ccc(Cl)cc2)CC1` [Compound 6, 1-[2-[bis(4-chlorophenyl)methoxy]ethyl]-4-(2-propenyl)piperazine], for which the inhibition in vivo at 100 µmol/kg in the series on striatum dopamine level (setting [4]) was 100%.
For the compound `C=CCN1CCN(CCOC(c2ccccc2)c2ccc(Cl)c(Cl)c2)CC1` (centres unmarked) [Compound 7, 1-[2-[(3,4-dichlorophenyl)-phenylmethoxy]ethyl]--4-(2-propenyl)-piperazine], the figures for the inhibition in vivo at 100 µmol/kg in the series on striatum dopamine level (setting [4]) and in the series on striatum dopamine level (setting [5]) were 100% and 98%, respectively.
For the compound `CCCN1CCN(CCOC(c2ccc(F)cc2)c2ccc(Cl)cc2)CC1` (centres unmarked) [Compound 8, 1-[2-[(4-chlorophenyl)-(4-flurophenyl)methoxy]-ethyl]-4-propyl-piperazine], the inhibition in vivo at 100 µmol/kg in the series with striatum dopamine level (setting [4]) was found to be 95%.
The same measure, in the same setting: as for `CCCCN1CCN(CCOC(c2ccc(F)cc2)c2ccc(F)cc2)CC1` [Compound 9, 1-[2-[bis(4-flurophenyl)methoxy]ethyl]-4-butyl-piperazine], the figure is 100%.
Turning to `C=CCN1CCN(CCOC(C)(c2ccc(F)cc2)c2ccc(F)cc2)CC1` [Compound 10, 1-[2-[1-bis(4-fluorophenyl)ethoxy]ethyl]-4-(2-propenyl)piperazine], the inhibition in vivo at 100 µmol/kg in the series on striatum dopamine level (setting [4]) amounted to 89%.
As for `CCCCCC(=O)N1CCN(CCOC(c2ccc(F)cc2)c2ccc(F)cc2)CC1` [Compound 11, 1-[2-[bis(4-fluorophenyl)methoxy]ethyl]-4-(1-oxo-hexyl)piperazine], in the series with striatum dopamine level (setting [4]), the inhibition in vivo at 100 µmol/kg was 82%.
As for `C#CCN1CCN(CCOC(c2ccc(F)cc2)c2ccc(F)cc2)CC1` [Compound 12, 1-[2-[bis(4-fluorophenyl)methoxy]ethyl]-4-(2--propynyl)piperazine], the inhibition in vivo at 100 µmol/kg in the series on striatum dopamine level (setting [5]) was determined as 94%.
As for `C=C(C)CN1CCN(CCOC(c2ccc(F)cc2)c2ccc(F)cc2)CC1` [Compound 13, 1-[2-[bis(4-fluorophenyl)methoxy]ethyl]-4-(2-methyl--2-propenyl)-piperazine], the inhibition in vivo at 100 µmol/kg in the series on striatum dopamine level (setting [5]) came out at 95%.
For the compound `CCC(=O)N1CCN(CCOC(c2ccc(F)cc2)c2ccc(F)cc2)CC1` [Compound 14, 1-[2-[bis(4-fluorophenyl)methoxy]ethyl]-4-(1-oxo-propyl)piperazine], in the series with striatum dopamine level (setting [5]), the inhibition in vivo at 100 µmol/kg was determined as 71%.
With `CCCCN1CCN(CCOC(c2ccccc2)c2ccc(Cl)c(Cl)c2)CC1` (centres unmarked) [Compound 15], the inhibition in vivo at 100 µmol/kg in the series with striatum dopamine level (setting [4]) stood at 98%.
In the case of `CCCCN1CCN(CCOC(c2ccc(F)cc2)c2ccc(Cl)cc2)CC1` (centres unmarked) [Compound 16, 1-[2-[(4-chlorophenyl)-(4-fluorophenyl)methoxy]-ethyl]-4-butylpiperazine], in the series on striatum dopamine level (setting [5]), the inhibition in vivo at 100 µmol/kg is 86%.
On to `CCCCCCN1CCN(CCOC(c2ccc(F)cc2)c2ccc(F)cc2)CC1` [Compound 17, 1-[2-[bis(4-fluorophenyl)methoxy]ethyl]-4-hexyl-piperazine], for which the inhibition in vivo at 100 µmol/kg in the series on striatum dopamine level (setting [5]) was 89%.
Turning to `CN1CC=C(c2ccccc2)CC1.Cl` [MPTP, 1-methyl-4-phenyl-1,2,3,6-tetrahydropyridine hydrochloride], in the series with dopaminergic system [1], the “degeneration of the dopaminergic system in men and monkeys” value is “causes the degeneration of the dopaminergic system”. Besides, the “selective dopaminergic system-damaging effect on mice” value in the series on dopaminergic system [2] was “selective dopaminergic system-damaging effect”.
Take `Cl.OC(CCN1CCCCC1)(c1ccccc1)C1CCCCC1` (stereo not drawn) [Trihexyphenidyl.HCl, α-cyclohexyl-α-phenyl-1-piperidinepropanol hydrochloride, reference compound]: in the series with striatum dopamine level (i.p., 10 mg/kg (<0.1 mmole/kg), before MPTP 70 mg/kg s.c.), the “DA decrease induced by MPTP, % inhibition, i.p. route (reference drug)” value worked out at 7%. In series [3], the “lethality at doses above 10 mg/kg” value is listed as “The animals perished on administration of a higher dose”.
